Activity calls are given as the source filed them. The calls are words filed in the database; no cut-off is given here.
Tests used:
[1] = Selectivity index, ratio of IC50 for cytotoxicity against human HT-1080 cells in presence of Fer-1 to IC50 for cytotoxicity against human HT-1080 cells; type: functional
HT-1080 [2] = assay: Cytotoxicity against human HT-1080 cells assessed as reduction in cell viability incubated for 48 hrs in presence of Fer-1 by MTT assay; type: functional, cell-based; conditions: HT-1080, 48 h
4T1 [3] = assay: Cytotoxicity against mouse 4T1 cells assessed as reduction in cell viability incubated for 48 hrs by MTT assay; type: functional, cell-based; conditions: 4T1, 48 h
MCF7 = assay: Cytotoxicity against human MCF7 cells assessed as reduction in cell viability incubated for 48 hrs by MTT assay; type: functional, cell-based; conditions: MCF7, 48 h
HT-1080 [4] = assay: Cytotoxicity against human HT-1080 cells assessed as reduction in cell viability incubated for 48 hrs by MTT assay; type: functional, cell-based; conditions: HT-1080, 48 h
[5] = target: T1, Phospholipid hydroperoxide glutathione peroxidase GPX4 (Homo sapiens) (UniProt P36969); assay: Inhibition of GPX4 in mouse 4T1 cells assessed as decrease in intracellular GPX4 activity at 5 uM after 6 hrs; type: cell-based
T1 sequence (whole entry): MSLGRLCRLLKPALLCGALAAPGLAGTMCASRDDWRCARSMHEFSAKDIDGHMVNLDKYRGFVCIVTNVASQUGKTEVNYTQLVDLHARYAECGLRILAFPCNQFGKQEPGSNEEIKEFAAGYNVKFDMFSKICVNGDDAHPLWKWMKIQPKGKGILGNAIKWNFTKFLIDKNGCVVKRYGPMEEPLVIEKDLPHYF

4T1 [6] = assay: Effect on intracellular GSH level in mouse 4T1 cells assessed as reduction in GSH level; type: functional, cell-based

Structure (SMILES) | Ratio IC50 [1] | IC50 (HT-1080 [2]) [µM] | IC50 (4T1 [3]) [nM] | IC50 (MCF7) [µM] | IC50 (HT-1080 [4]) [nM] | inhibition [5] [%] | Activity (4T1 [6])
Cc1noc(-c2ccc(N(C(=O)CCl)C(C(=O)NCCc3ccccc3)c3csc4ccccc34)cc2)n1 (stereo not drawn) | 16.7 | 3.5 | 750 | 8.28 | 210 |  | 
CCOC(=O)c1ccc(N(C(=O)CCl)C(C(=O)NCc2ccccc2)c2c[nH]c3ccccc23)cc1 (stereo not drawn) | 5.8 | 6.4 | 4920 | 11.9 | 1100 |  | 
O=C(NCCc1ccccc1)C(c1csc2ccccc12)N(C(=O)CCl)c1ccc(-c2nnco2)cc1 (stereo not drawn) | 19.5 | 3.9 | 810 | 7.06 | 200 |  | 
CCOC(=O)c1ccc(N(C(=O)CCl)C(C(=O)NC(C)(C)C)c2c[nH]c3ccccc23)cc1 (stereo not drawn) | 9.8 | 4.2 | 3220 | 12.1 | 430 |  | 
C=CCNC(=O)C(c1c[nH]c2ccccc12)N(C(=O)CCl)c1ccc(C(=O)OCC)cc1 (stereo not drawn) | 6.2 | 4.57 | 2150 | 12.6 | 740 |  | 
CCOC(=O)c1ccc(N(C(=O)CCl)C(C(=O)NCCc2ccccc2)c2c[nH]c3ncccc23)cc1 (stereo not drawn) | 1.7 | 5.3 | 9300 | 6.85 | 3200 |  | 
N#Cc1ccc(N(C(=O)CCl)C(C(=O)NCCc2ccccc2)c2c[nH]c3ccccc23)cc1 (stereo not drawn) | 5.6 | 4.2 | 9300 | 6.85 | 750 |  | 
COc1ccc(N(C(=O)CCl)C(C(=O)NCCc2ccccc2)c2cccs2)cc1Cl (stereo not drawn) | 11.1 | 7.31 | 2520 | 10.1 | 660 |  | 
CCOC(=O)c1ccc(CN(C(=O)CCl)C(C(=O)NCc2ccccc2)c2c[nH]c3ccccc23)cc1 (stereo not drawn) | 1.63 | 4.9 | 9910 | 20.4 | 3000 |  | 
CCOC(=O)c1ccc(N(C(=O)CCl)C(C(=O)NCCc2ccc(Cl)cc2)c2c[nH]c3ccccc23)cc1 (stereo not drawn) | 10 | 4.31 | 2070 | 16.3 | 430 |  | 
CCOC(=O)c1ccc(CN(C(=O)CCl)C(C(=O)NCCc2ccccc2)c2c[nH]c3ccccc23)cc1 (stereo not drawn) | 1.91 | 4.4 | 5860 | 14.8 | 2300 |  | 
CCOC(=O)c1ccc(N(C(=O)CCl)C(C(=O)NCCc2ccccc2)c2ccnn2C)cc1 (stereo not drawn) | 1.2 | 2.5 | 10200 | 8.97 | 2100 |  | 
CCOC(=O)c1ccc(N(C(=O)CCl)C(C(=O)NCCc2ccccc2)c2cccc3[nH]ccc23)cc1 (stereo not drawn) | 3.2 | 1.3 | 2960 | 14.8 | 400 |  | 
CCOC(=O)c1ccc(N(C(=O)CCl)C(C(=O)NCCc2cccc(C(F)(F)F)c2)c2c[nH]c3ccccc23)cc1 (stereo not drawn) | 9 | 5.03 | 2170 | 10.3 | 560 |  | 
CCOC(=O)c1ccc(N(C(=O)CCl)C(C(=O)NCCc2ccccc2)c2cc[nH]n2)cc1 (stereo not drawn) | 6.1 | 4.3 | 4470 | 15.2 | 700 |  | 
CCOC(=O)c1ccc(CN(C(=O)CCl)C(C(=O)NC(C)(C)C)c2c[nH]c3ccccc23)cc1 (stereo not drawn) | 1 | 16 | 9430 | 15.5 | 16000 |  | 
COc1ccc(N(C(=O)CCl)C(C(=O)NCCc2ccccc2)c2c[nH]c3ccccc23)cc1 (stereo not drawn) |  |  | 9720 | 15.3 |  |  | 
O=C(NCCc1ccccc1)C(c1c[nH]c2ccccc12)N(C(=O)CCl)c1ccc(-c2nnco2)cc1 (stereo not drawn) | 12.9 | 4.52 | 890 | 5.92 | 350 |  | 
Cc1noc(-c2ccc(N(C(=O)CCl)C(C(=O)NCCc3ccccc3)c3c[nH]c4ccccc34)cc2)n1 (stereo not drawn) | 12.8 | 4.21 | 1940 | 13.2 | 330 |  | 
CCOC(=O)c1ccc(N(C(=O)CCl)C(C(=O)NCCc2cccc(OC)c2)c2c[nH]c3ccccc23)cc1 (stereo not drawn) | 11.9 | 4.88 | 2350 | 11.3 | 410 |  | 
CCOC(=O)c1ccc(N(C(=O)CCl)C(C(=O)NCCc2ccccc2)c2c[nH]c3ccccc23)cc1 (stereo not drawn) | 14.7 | 4.43 | 1930 | 8.71 | 300 |  | 
CCOC(=O)c1ccc(N(C(=O)CCl)C(C(=O)NCCc2cccc(Cl)c2)c2c[nH]c3ccccc23)cc1 (stereo not drawn) | 12.2 | 4.5 | 1990 | 9.26 | 370 |  | 
O=C(NCCc1ccccc1)C(c1c[nH]c2ccccc12)N(C(=O)CCl)c1ccc(F)cc1 (stereo not drawn) |  |  | 9210 | 13.5 |  |  | 
CCOC(=O)c1ccc(N(C(=O)CCl)C(C(=O)NC2CCCCC2)c2c[nH]c3ccccc23)cc1 (stereo not drawn) | 3.7 | 3.45 | 4630 | 9.01 | 930 |  | 
CCOC(=O)c1ccc(N(C(=O)CCl)C(C(=O)NCCc2ccccc2Cl)c2c[nH]c3ccccc23)cc1 (stereo not drawn) | 3.6 | 3.21 | 2310 | 13.4 | 890 |  | 
COC(=O)c1ccc([C@H]2c3[nH]c4ccccc4c3C[C@H](C(=O)OC)N2C(=O)CCl)cc1 | 3.1 | 3.7 | 3690 | 13.6 | 1200 | 11.8 | inactive
CCOC(=O)c1ccc(N(C(=O)CCl)C(C(=O)NCCc2ccccc2)c2csc3ccccc23)cc1 (stereo not drawn) | 16.8 | 4.7 | 1480 | 12.5 | 280 |  | 
O=C(NCCc1ccccc1)C(c1c[nH]c2ccccc12)N(C(=O)CCl)c1ccc(Br)cc1 (stereo not drawn) |  |  | 6470 | 10.9 |  |  | 
O=C(NCCc1ccccc1)C(c1c[nH]c2ccccc12)N(C(=O)CCl)c1ccc(-c2cnco2)cc1 (stereo not drawn) | 24.5 | 3.92 | 1040 | 5.7 | 160 |  | 
